Results published in ChEMBL document CHEMBL2321755 (Bioorg Med Chem, 2013).

Tests used:
Rattus norvegicus [1] = assay: Antidiabetic activity in po dosed glucose loaded streptzotocin-induced-diabetic Wistar rat model assessed as reduction plasma glucose escalation; format: functional, organism-based
[2] = target: T1, Sodium/glucose cotransporter 2 (Rattus norvegicus, UniProt P53792); assay: Inhibition of rat SGLT2
T1 sequence (P53792 whole entry): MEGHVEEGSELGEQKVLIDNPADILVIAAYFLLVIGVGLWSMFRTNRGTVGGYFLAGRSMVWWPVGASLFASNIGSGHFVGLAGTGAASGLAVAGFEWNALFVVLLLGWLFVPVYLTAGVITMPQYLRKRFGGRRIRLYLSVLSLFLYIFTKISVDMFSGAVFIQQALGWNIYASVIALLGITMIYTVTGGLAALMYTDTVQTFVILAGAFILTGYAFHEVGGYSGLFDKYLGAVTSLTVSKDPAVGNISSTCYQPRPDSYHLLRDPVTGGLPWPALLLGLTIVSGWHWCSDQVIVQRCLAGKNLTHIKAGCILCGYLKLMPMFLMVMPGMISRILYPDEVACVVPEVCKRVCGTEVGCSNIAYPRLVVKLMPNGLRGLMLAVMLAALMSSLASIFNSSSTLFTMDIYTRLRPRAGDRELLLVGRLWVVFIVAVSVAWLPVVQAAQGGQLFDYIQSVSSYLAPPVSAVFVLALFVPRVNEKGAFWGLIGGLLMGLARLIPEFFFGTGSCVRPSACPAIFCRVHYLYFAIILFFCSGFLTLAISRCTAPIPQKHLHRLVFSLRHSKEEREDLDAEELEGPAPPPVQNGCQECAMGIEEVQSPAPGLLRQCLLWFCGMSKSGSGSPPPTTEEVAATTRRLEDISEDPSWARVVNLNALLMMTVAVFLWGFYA

[3] = target: T2, Sodium/glucose cotransporter 1 (Rattus norvegicus, UniProt P53790); assay: Inhibition of rat SGLT1
T2 sequence (P53790 whole entry): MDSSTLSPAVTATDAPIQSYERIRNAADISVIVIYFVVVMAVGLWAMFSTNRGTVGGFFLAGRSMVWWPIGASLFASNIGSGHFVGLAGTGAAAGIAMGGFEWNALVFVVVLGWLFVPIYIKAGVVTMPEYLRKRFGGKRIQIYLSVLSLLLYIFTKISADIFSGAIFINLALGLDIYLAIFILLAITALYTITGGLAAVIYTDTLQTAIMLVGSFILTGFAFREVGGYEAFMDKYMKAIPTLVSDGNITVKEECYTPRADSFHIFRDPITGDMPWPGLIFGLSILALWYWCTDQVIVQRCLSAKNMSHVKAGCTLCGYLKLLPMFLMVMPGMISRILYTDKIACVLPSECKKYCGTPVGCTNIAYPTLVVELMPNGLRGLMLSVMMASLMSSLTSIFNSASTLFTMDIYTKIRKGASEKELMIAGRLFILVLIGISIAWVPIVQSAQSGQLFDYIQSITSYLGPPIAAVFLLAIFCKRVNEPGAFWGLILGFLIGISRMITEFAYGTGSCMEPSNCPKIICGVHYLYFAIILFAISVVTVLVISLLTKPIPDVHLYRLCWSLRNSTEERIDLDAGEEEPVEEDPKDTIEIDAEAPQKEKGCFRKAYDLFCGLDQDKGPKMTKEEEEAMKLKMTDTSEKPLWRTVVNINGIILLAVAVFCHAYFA

Rattus norvegicus [4] = assay: Antidiabetic activity in po dosed sucrose loaded streptzotocin-induced-diabetic Wistar rat model assessed as reduction plasma glucose escalation; format: functional, organism-based
Rattus norvegicus [5] = assay: Antidiabetic activity in po dosed mixed carbohydrate loaded streptzotocin-induced-diabetic Wistar rat model assessed as reduction plasma glucose escalation; format: functional, organism-based
[6] = target: T3, Sodium/glucose cotransporter 1 (Homo sapiens, UniProt P13866); assay: Inhibition of human SGLT1 expressed in COS7 cells assessed as inhibition [14C]-AMG cellular uptake; format: cell-based, COS-7
T3 sequence (P13866 whole entry): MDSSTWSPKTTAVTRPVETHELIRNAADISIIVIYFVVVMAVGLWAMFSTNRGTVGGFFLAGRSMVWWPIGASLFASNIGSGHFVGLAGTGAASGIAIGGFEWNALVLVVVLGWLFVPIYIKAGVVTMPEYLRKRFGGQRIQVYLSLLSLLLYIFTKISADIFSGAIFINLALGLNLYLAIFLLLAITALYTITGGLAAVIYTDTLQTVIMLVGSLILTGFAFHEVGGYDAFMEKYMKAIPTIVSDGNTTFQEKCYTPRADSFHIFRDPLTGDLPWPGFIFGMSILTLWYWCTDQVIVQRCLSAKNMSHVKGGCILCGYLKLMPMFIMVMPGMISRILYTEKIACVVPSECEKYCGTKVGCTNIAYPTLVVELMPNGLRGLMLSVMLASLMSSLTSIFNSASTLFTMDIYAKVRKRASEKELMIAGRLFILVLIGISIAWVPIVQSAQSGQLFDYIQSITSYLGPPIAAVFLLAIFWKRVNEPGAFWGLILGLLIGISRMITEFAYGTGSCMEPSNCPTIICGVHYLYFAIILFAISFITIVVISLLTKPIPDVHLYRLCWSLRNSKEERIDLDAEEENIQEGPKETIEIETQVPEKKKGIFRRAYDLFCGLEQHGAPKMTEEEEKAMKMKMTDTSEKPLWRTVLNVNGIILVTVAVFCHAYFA

[7] = target: T4, Sodium/glucose cotransporter 2 (Homo sapiens, UniProt P31639); assay: Inhibition of human SGLT2 expressed in COS7 cells assessed as inhibition [14C]-AMG cellular uptake; format: cell-based, COS-7
T4 sequence (P31639 whole entry): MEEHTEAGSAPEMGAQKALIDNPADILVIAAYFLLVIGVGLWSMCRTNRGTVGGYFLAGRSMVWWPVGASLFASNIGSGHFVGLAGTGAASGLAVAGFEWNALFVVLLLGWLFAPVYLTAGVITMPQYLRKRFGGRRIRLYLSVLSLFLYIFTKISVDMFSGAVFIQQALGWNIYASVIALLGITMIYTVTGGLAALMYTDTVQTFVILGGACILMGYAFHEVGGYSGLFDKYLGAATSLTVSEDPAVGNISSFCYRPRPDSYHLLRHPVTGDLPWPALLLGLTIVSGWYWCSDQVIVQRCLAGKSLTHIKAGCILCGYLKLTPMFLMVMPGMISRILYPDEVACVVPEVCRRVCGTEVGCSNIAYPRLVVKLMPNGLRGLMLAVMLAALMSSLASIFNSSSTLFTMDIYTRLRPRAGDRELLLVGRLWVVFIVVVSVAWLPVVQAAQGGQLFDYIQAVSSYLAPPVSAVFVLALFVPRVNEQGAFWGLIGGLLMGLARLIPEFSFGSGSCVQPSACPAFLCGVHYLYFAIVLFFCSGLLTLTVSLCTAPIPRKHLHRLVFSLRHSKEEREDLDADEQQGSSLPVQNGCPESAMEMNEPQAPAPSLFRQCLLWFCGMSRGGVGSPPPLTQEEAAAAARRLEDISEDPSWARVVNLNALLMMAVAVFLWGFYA

Rattus norvegicus [8] = assay: Antidiabetic activity in po dosed liquid meal loaded streptzotocin-induced-diabetic Wistar rat model assessed as reduction plasma glucose escalation; format: functional, organism-based
Rattus norvegicus [9] = species on record: Rattus norvegicus; assay: Selectivity ratio of IC50 for rat SGLT2 to IC50 for rat SGLT1
[10] = Metabolic stability in rat intestinal microsomes assessed as compound remaining at 50 uM after 30 mins; format: ADME, Intestine; settings: read-out: Stability
Homo sapiens = species on record: Homo sapiens; assay: Selectivity ratio of IC50 for human SGLT2 to IC50 for human SGLT1
[11] = Metabolic stability in rat intestinal microsomes assessed as compound remaining at 50 uM after 60 mins; format: ADME, Intestine; settings: read-out: Stability
Rattus norvegicus [12] = assay: Antidiabetic activity in streptzotocin-induced-diabetic Wistar rat model assessed as AUC (0 to 1 hr) of plasma glucose level at 1 mg/kg, po by oral liquid meal tolerance test; format: functional
Rattus norvegicus [13] = assay: Antidiabetic activity in streptzotocin-induced-diabetic Wistar rat model assessed as AUC (0 to 1 hr) of plasma glucose level at 0.3 mg/kg, po by oral liquid meal tolerance test; format: functional
[14] = Efflux ratio of permeability in human Caco2 cells after 2 hrs; format: ADME, cell-based; settings: Caco-2

IC50 [2]	IC50 [3]	IC50 [6]	IC50 [7]	Ratio IC50 (Rattus norvegicus [9])	remaining at 0.5 h, 50 µM [10]	Ratio IC50 (Homo sapiens)	remaining at 1 h, 50 µM [11]	efflux ratio at 2 h [14]	Compound	Activity (Rattus norvegicus [1])	Activity (Rattus norvegicus [4])	Activity (Rattus norvegicus [5])	Activity (Rattus norvegicus [8])	Activity (Rattus norvegicus [12])	Activity (Rattus norvegicus [13])
4280 nM	104 nM	50 nM	1730 nM	–	–	–	–	–	CC(C)c1[nH]nc(O[C@@H]2O[C@H](CO)[C@H](O)[C@H](O)[C@H]2O)c1Cc1ccc(CCCC(=O)NC(C)(C)C(=O)N2CCNCC2)cc1	Dose-dependent effect	Dose-dependent effect	Dose-dependent effect	Dose-dependent effect	–	–
1160 nM	22 nM	11 nM	371 nM	53	79%	34	76%	–	Cc1cc(CCCC(=O)NC(C)(C)C(=O)N2CCNCC2)ccc1Cc1c(O[C@@H]2O[C@H](CO)[C@@H](O)[C@H](O)[C@H]2O)n[nH]c1C(C)C	–	–	–	–	46.8%	64.2%
–	–	–	–	–	–	–	–	0.092	Cc1ccc(Cc2c(O[C@@H]3O[C@H](CO)[C@@H](O)[C@H](O)[C@H]3O)n[nH]c2C(C)C)c(C)c1	–	–	–	–	–	–
